Reference: patent US20230218639A1, “USE OF OXYGENATED CHOLESTEROL SULFATES FOR TREATING NEUROLOGICAL CONDITIONS, NEURODEGENERATIVE DISEASES, AND ADDICTION” (Durect Corporation, priority 2020, published 2023)
“And” between values parts separate entries of the source, which are not always exact repeats. Identical values can stand only once. Like-named read-outs stand apart in the source and are kept apart here.

What was measured:
[1] = target: DNMT1 (Homo sapiens, UniProt P26358); assay: DNMT1 activity assay (Poly(dI-dC) substrate, ^3H-SAM); assay type: biochemical; conditions: read-out: IC50, DNMT-1 activity
Chain of DNMT1 (P26358 whole entry): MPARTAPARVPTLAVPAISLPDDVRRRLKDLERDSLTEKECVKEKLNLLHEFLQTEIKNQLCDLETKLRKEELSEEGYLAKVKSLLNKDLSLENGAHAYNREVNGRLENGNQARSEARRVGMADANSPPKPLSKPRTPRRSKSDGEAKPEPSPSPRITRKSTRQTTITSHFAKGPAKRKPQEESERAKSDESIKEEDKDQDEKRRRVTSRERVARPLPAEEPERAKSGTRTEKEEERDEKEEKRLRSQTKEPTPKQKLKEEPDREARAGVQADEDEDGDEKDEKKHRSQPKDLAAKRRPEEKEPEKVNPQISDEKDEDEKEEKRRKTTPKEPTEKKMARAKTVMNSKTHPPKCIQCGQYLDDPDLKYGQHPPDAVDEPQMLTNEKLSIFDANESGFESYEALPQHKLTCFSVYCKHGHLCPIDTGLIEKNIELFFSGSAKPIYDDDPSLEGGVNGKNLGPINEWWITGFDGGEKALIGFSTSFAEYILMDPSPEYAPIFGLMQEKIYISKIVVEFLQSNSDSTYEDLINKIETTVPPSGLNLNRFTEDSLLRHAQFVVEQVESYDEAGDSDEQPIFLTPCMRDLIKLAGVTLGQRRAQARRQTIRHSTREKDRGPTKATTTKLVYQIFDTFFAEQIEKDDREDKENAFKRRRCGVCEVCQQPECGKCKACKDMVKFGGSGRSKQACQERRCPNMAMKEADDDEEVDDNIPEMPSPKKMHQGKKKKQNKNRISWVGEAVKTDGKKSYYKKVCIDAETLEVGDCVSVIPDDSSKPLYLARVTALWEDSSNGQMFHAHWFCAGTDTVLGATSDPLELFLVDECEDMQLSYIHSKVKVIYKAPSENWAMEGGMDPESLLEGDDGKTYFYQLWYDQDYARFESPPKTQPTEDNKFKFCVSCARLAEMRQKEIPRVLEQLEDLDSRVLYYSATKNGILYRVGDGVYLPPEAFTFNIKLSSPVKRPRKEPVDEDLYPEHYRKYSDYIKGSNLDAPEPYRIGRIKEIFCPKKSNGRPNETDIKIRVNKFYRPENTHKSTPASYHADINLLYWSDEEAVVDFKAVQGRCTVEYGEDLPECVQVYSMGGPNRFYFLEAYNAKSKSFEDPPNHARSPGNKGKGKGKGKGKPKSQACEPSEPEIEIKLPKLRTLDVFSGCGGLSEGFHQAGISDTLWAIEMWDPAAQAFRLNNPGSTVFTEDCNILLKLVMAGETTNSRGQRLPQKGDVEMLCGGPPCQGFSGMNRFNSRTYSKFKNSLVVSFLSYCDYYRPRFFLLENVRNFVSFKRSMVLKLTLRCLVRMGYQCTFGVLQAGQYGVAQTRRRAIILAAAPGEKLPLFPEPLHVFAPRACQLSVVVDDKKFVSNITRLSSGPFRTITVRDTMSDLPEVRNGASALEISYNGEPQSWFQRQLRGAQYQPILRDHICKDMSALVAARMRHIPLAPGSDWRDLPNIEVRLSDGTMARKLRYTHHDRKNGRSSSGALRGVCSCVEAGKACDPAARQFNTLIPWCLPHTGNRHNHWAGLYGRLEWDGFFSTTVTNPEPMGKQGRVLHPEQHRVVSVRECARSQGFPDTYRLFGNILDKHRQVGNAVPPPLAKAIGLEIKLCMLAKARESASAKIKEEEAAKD
Protocol: For the DNMT1 activity assay, the substrate solution, 0.001 mg/ml Poly(dI-dC):Poly(dI-dC) in 50 mM Tris-HCl, pH 7.5, 50 mM NaCl, 5 mM EDTA, 5 mM DTT, 1 mM PMSF, 5% glycerol, 0.01% Brij35, 1% DMSO was used. For the DNMT3a/3b activity assay, 0.0075 mg/ml Lambda DNA in 50 mM Tris-HCl, pH 7.5, 50 mM NaCl, 5 mM EDTA, 5 mM DTT, 1 mM PMSF, 5% glycerol, 1% DMSO, was used. The indicated DNMT1, DNMT3a, or DNMT3b was added to the appropriate substrate solution and gently mixed. […] The mixtures were first incubated for 15 min, then ^3H-SAM was added to the reaction mixture to initiate the reaction, and the mixture was incubated for 60 min at 30° C. Following incubation, the reaction mixture was finally transferred to filter-paper for detection of radioactivity counts.

[2] = tested on: ^5mCpG in promoter regions, Huh-7 cells; assay: Whole genome bisulfite sequencing (WGBS); assay type: cell-based, human
Protocol: (§1) Each sample, 2 μg, was sent to EpigenDx, Inc. (Hopkinton, Mass.) for analysis of global methylation bisulfite sequencing. The same samples, 6 μg, were sent to Novogene Co., Ltd (Tianjin, China) for analysis of whole genome bisulfite sequencing (WGBS). Total RNA was isolated using the Promega SV total RNA isolation system (Madison, Wis.) with DNase treatment. Each sample, 2 μg, was used for the first-strand cDNA synthesis as recommended by the manufacturer (Invitrogen, Carlsbad, Calif.). Real-time RT-PCR was performed using SYBR Green as the indicator on ABI 7500 Fast Real-Time PCR System (Applied Biosystems, Foster City, Calif.). Amplifications of β-actin or GAPDH were used as internal controls. Relative messenger RNA (mRNA) expression was quantified with the comparative cycle threshold (Ct) method using the primer set shown in Table 1.1 and was expressed as 2^−ΔΔCt.
Each sample, 5.2 μg of genomic DNA spiked with 26 ng lambda DNA, was fragmented by sonication to 200-300 bp with Covaris S220, followed by end repair and adenylation. Cytosine-methylated barcodes were ligated to sonicated DNA per the manufacturer's instructions. These DNA fragments were treated twice with bisulfite using EZ DNA Methylation-Gold™ Kit (Zymo Research) before the resulting single-strand DNA fragments were PCR amplified using KAPA HiFi Hot Start Uracil and Ready Mix (2×). Library concentration was quantified by Qubit® 2.0 Flurometer (Life Technologies, CA, USA) and quantitative PCR, and the insert size was assayed on an Agilent Bioanalyzer 2100 system.
The library preparations were sequenced on an Illumina Hiseq 2500/4000 or Novaseq platform and 125 bp/150 bp paired-end reads were generated. Image analysis and base calling were performed with Illumina CASAVA pipeline. Trimmomatic (Trimmomatic-0.36) software was used for quality control. Bismark software (version 0.16.3; Krueger F, 2011) was used to perform alignments of bisulfite-treated reads to a reference genome (−×700—dovetail). DSS software (23) was used to identify differentially methylated regions (DMRs). KOBAS software was used to test the statistical enrichment of DMR related genes in the Kyoto Encyclopedia of Genes and Genomes (KEGG) pathways.
Each sample (6 μg) was used for analysis of the whole genome bisulfite sequencing (WGBS).

[3] = tested on: Huh-7 cells; assay: Real-time RT-PCR gene expression; assay type: cell-based, human; conditions: Huh-7, HG 72 hours; 25HC3S 6.25-50 μM, 1-8 hours
Protocol: as §1, with “FIGS. 3A-3D. Expression of key genes related to signaling pathways. […] Key Genes and their targeting genes expression were determined by RT-PCR analysis. […] Each” for “Each”, “[…],” for “EpigenDx,”, “Each sample, 2 μg, was used for the first-strand cDNA synthesis as recommended by the manufacturer (Invitrogen, Carlsbad, Calif.).” left out, “2^-ΔΔCt.” for “2^−ΔΔCt.”

[4] = Plasma pharmacokinetics, single intravenous dose; assay type: in vivo, Sprague Dawley rats; conditions: single intravenous (bolus) dose 10 mg/kg
Protocol: (§2) Nine male Sprague Dawley rats (Group 1) were designated for the pharmacokinetic phase, 3 male Sprague Dawley rats (Group 2) for the excretion mass balance phase, and 7 male Sprague Dawley rats (Group 3) and 9 male Long Evans rats (Group 4) for the tissue distribution phase. All animals received a single intravenous dose of [^14C]-25HC3S at 10 mg/kg and a target radioactivity of 225 μCi/kg. Blood samples were collected from all Group 1 animals at approximately 0.083, 0.25, 0.5, 1, 2, 4, 8, 12, 24, 48, and 72 hours post-dose. Urine and feces were collected from all Group 2 animals periodically through 168 hours post-dose. […] Following blood collection, animals were euthanized by CO2 inhalation and carcasses frozen in a dry ice/hexane bath for processing by quantitative whole body autoradiography. Whole blood, plasma, urine, feces, cage rinse, and cage wash were analyzed for total radioactivity by liquid scintillation counting.

[5] = Tissue distribution by quantitative whole body autoradiography, intravenous dose; assay type: in vivo, Sprague Dawley rats; conditions: intravenous 10 mg/kg
Protocol: as §2

[6] = parameters: species or system rats; conditions: rat, in vivo, po, 75 mg/kg
Protocol: The terminal elimination phase T1/2 was 27.3 hours.

[7] = parameters: species or system rats; conditions: Sprague Dawley, rat, in vivo, po, 75 mg/kg
[8] = rat, in vivo, po, 75 mg/kg
Protocol: Plasma concentrations were similar to those determined in the pharmacokinetics phase and were above the lower limit of quantitation.
Pancreas and liver concentrations ranged from 23,500 ng equiv./g to 28,100 ng equiv./g. Uveal tract and brain concentrations were lowest relative to the other tissues and were approximately 1000 ng equiv./g. Skin, thymus, prostate, and pituitary tissue concentrations were <3000 ng equiv./g. Remaining tissues had concentrations between 3600 ng-equiv./g and 10,700 ng equiv./g. […] As calculated using AUClast, the tissue:plasma ratios were highest for the small intestine (wall, 15.4) followed by the liver and adrenal gland at 6.96 and 6.64, respectively. High liver and small intestine concentrations are consistent with oral administration and biliary (fecal) excretion.

C[C@H](CCCC(C)(C)O)[C@H]1CC[C@H]2[C@@H]3CC=C4C[C@@H](OS(=O)(=O)O)CC[C@]4(C)[C@H]3CC[C@]12C [25HC3S, 5-Cholesten-3β, 25-diol 3-sulfate]
IC50 [1]: 4.04 µM
genes with demethylated ^5mCpG in promoter regions, Calcium pathway ([2]; of 180 total genes): 19 genes
genes with demethylated ^5mCpG in promoter regions, cAMP pathway ([2]; of 200 total genes): 28 genes
genes with demethylated ^5mCpG in promoter regions, MAPK signaling pathway ([2]; of 257 total genes): 23 genes
number of KEGG pathways enriched in hypomethylated genes ([2]; p<0.05, Huh-7, HG 72 hours, 25 μM 25HC3S 4 hours): 79 KEGG pathways and 75 KEGG pathways
decreased expression of FAS [3]: ~90%
decreased expression of HMGR [3]: ~90%
increased expression of CREB5 [3]: up to 20 fold
increased expression of DUSP8 [3]: 5 fold
increased expression of PGC1A [3]: 12 fold
plasma AUClast [4]: 27,900 h*ng-equiv./g
terminal elimination phase T1/2, plasma ([4]; PK phase): 26.6 h
AUClast in liver [5]: ≤ 364,000 h ng/g
tissues in which radioactivity was detected [5]: all tissues except the eye (lens)
whole blood AUClast [5]: 25,200 h*ng-equiv./g
T1/2 in plasma ([5]; QWBA phase): 44.3 h
T1/2 in whole blood ([5]; QWBA phase): 52.2 h
terminal elimination phase T1/2 ([6]; Sprague Dawley): 27.3 h
plasma AUClast [6]: 96,400 h·ng equiv./g
plasma Cmax [6]: 3800 ng equiv./g
dose recovered in urine, feces, and cage rinse [7]: approximately 94.5%
recovered radioactivity in feces [7]: 94.2%
Cmax in small intestine (wall) [8]: 424,000 ng equiv./g
Cmax in stomach (wall) [8]: 204,000 ng equiv./g
tissue Tmax [8]: ≤ 6 hours post-dose
tissues in which radioactivity was detected [8]: all tissues except the eye (lens)
whole blood AUClast [8]: 127,000 h ng equiv./g
whole blood Cmax [8]: 2850 ng equiv/g
